Broadly, the CC50 is the concentration that lowers cell viability or growth by half. By melting point is commonly meant the temperature of the solid-liquid transition.

One series deals with MRSA USA300. The series can be described thus: Broth microdilution MIC, initial antibacterial screening. The settings on record: MRSA USA300. The format is cell-based, S. aureus. On the procedure:
(§1) The minimum inhibitory concentrations (MICs) of the tested compounds and control drugs against clinically-relevant bacterial strains were determined using the broth microdilution method, according to guidelines outlined by the Clinical and Laboratory Standards Institute (CLSI), or as described previously.
(§2) Initial screening of the bisphenylthiazoles against Gram-positive and Gram-negative bacteria. Bacterial strains, (except C. difficile that was grown anaerobically on brain heart infusion supplemented agar at 37° C for 48 hours), were grown aerobically overnight on tryptone soy agar plates at 37° C. Afterwards, a bacterial solution equivalent to 0.5 McFarland standard was prepared and diluted in cation-adjusted Mueller-Hinton broth (CAMHB) (for S. aureus, and E. coli) to achieve a bacterial concentration of about 5 × 10^5 CFU/mL. C. difficile was diluted in brain heart infusion supplemented broth, supplemented with yeast extract, hemin and vitamin K to achieve a bacterial concentration of about 5 × 10^5 CFU/mL. Compounds and control drugs were added in the first row of the 96 -well plates, and serially diluted with the corresponding media containing bacteria. Plates were then, incubated aerobi cally at 37° C for 18-20 hours (for S. aureus and E. coli). C. difficile was incubated anaerobically at 37° C for 48 hours. […]
(§3) the visual growth of bacteria.
Background: In broth dilution the organism is exposed to a series of concentrations in liquid medium.

For series [1], the system named is C. difficile ATCC BAA1870. The series can be described thus: Broth microdilution MIC, initial antibacterial screening (anaerobic). The format is cell-based, Clostridioides difficile. The procedure: as §1, §2, §3
Series [2] concerns E. coli JW55031 (tolC-mutant). The series is described as follows: microbe, parasite or virus in culture. The format is cell-based, Escherichia coli. On the procedure: as §1, §2, §3
In series [3] the test system is E. coli BW25113 (wild-type). The series is described as follows: Broth microdilution MIC, initial antibacterial screening. Type of series: cell-based, Escherichia coli. On the procedure: as §1, §2, §3
For the next series, the system named is Candida albicans. The series is described as follows: Antifungal broth microdilution MIC (50% growth inhibition) and MFC. The format is cell-based. On the procedure: (§4) Serial dilutions (from 128 μg/mL to 0.06 μg/mL) of the tested compounds and control drugs (fluconazole, itraconazole and amphotericin) (in triplicates), were screened against clinical isolates of Candida albicans, Candida auris, Candida glabrata, Candida parapsilosis, Candida tropicalis, Candida krusei, Cryptococcus neoformans, Cryptococcus gattii and Aspergillus fumigatus species using the broth microdilution method according to the Clinical and Laboratory Standards Institute guidelines. MICs were determined as the lowest concentration of the compounds that inhibited the fungal growth by 50% after incubation at 35 °C for 24 h (for Candida and Aspergillus), or 48 h (for Cryptococcus). The minimum fungicidal concentration (MFC) of these compounds was tested by plating 4 μL from wells with no growth onto YPD agar plates. The plates were incubated at 37 °C for 24 hours before recording the MFC, which was categorized as the lowest concentration that reduced fungal growth by 99.9% [45]. The experiment was repeated three independent times.

A further series relates to Candida auris. The description is as above. The format is cell-based. On the procedure: as §4
The next series relates to Candida glabrata. Described as above. Type of series: cell-based. On the procedure:
as §4

For a further series, the system named is Candida krusei. The series is described as above. Type of series: cell-based. On the procedure:
as §4

The subject of the next series is Candida tropicalis. Described as above. The settings on record: C. tropicalis ATCC 1369. Type of series: cell-based. The procedure: as §4
Series [4] relates to Lactobacillus casei ATCC-334. The series is described as follows: Broth microdilution MIC against normal human microbiota. The format is cell-based. The settings on record: Lactobacillus casei ATCC-334. On the procedure:
(§5) Broth microdilution was utilized to determine the activity of bisphenylthiazoles against the human gut microflora as described elsewhere. A bacterial solution equivalent to 0.5 McFarland standards was prepared and diluted in MRS broth to achieve a bacterial concentration of approximately 5 x 10^5 CFU/mL. Then, compounds/control antifungals (in triplicates), were added to the plates and serially diluted with media containing bacteria. The plates were incubated for 48 hours at 37 °C before recording the MIC values. The experiment was repeated three independent times.

Series [5] deals with Lactobacillus crispatus HM-370. The series is described as above. The settings on record: Lactobacillus crispatus HM-370. Type of series: cell-based. The procedure: as §5
In series [6] the test system is Lactobacillus gasseri HM-400. The description is as above. The format is cell-based. The settings on record: Lactobacillus gasseri HM-400. The procedure:
as §5

The subject of the next series is Cryptococcus gattii. The series can be described thus: Antifungal broth microdilution MIC (50% growth inhibition, 48 h). Type of series: cell-based. The procedure: as §4
A further series deals with Cryptococcus neoformans. Described as above. The format is cell-based. The procedure: as §4
The next series has as its system Aspergillus fumigatus. The series can be described thus: Antifungal broth microdilution MIC (50% growth inhibition). The format is cell-based. The procedure:
as §4

For another series, the system named is Candida parapsilosis. Described as above. The format is cell-based. On the procedure: as §4
The test system of series [7] is human colorectal cells (Caco-2). The series is described as follows: In vitro cytotoxicity, MTS assay. The settings on record: Caco-2, 24 h exposure, MTS. On the procedure:
(§6) Fig 2 In vitro cytotoxicity assay of bisphenylthiazole compounds 7, 16 and 17 (tested in triplicates at 32, 64 and 128 μg/mL) against: A) human colorectal cells (Caco-2), and B) monkey kidney epithelial cells (Vero) after 24-hours exposure time, using the MTS 3-(4,5-dimethylthiazol-2-yl)-5-(3-carboxymethoxyphenyl)-2-(4-sulfophenyl)-2H-tetrazolium) assay. The data represent the percentage of viable Caco-2 or Vero cells measured as the average absorbance relative to DMSO after exposure to the tested compounds. Dimethyl sulfoxide (DMSO) was used as a negative control. Error bars represent the standard deviation values.
(§7) To explore the tolerability of bisphenylthiazoles, their cytotoxicity profile was assessed in human colorectal adenocarcinoma (Caco-2) and monkey kidney epithelial cells (Vero) as described earlier. Briefly, compounds were incubated with the cells for 24 hours. Then, cells were incubated with MTS reagent for 3 hours before measuring the absorbance values (OD490). The experiment was repeated in two independent times.

The subject of series [8] is monkey kidney epithelial cells (Vero). The series is described as follows: In vitro cytotoxicity, MTS assay. On the procedure: as §6, §7
Setting [9] is: Staphylococcus aureus, read-out: MIC.
The mark [10] stands for this setting: Clostridioides difficile, ATCCBAA1870, read-out: MIC.
Where [11] appears, read: Escherichia coli, read-out: MIC.
Where [12] appears, read: Candida albicans, C. albicans SS5314 (wild-type), read-out: MIC.

≈ marks a conversion by molar mass, not a printed value. Like-named read-outs stand apart in the source and are kept apart here.

Consider `Cc1nc(-c2ccc(-c3ccccc3)cc2)sc1-c1nnc(N[C@@H]2CCCC[C@H]2N)o1` (relative stereo) [Compound 16, N-{5-[2-((1,1’-Biphenyl)-4-yl)-4-methylthiazol-5-yl]-1,3,4-oxadiazol-2-yl}cyclo-hexane-trans-1,2-diamine], for which the MIC with MRSA USA300 was 64 µg/mL (≈ 148 µM); in series [1] it was 32 µg/mL (≈ 74.1 µM); in series [2] (E. coli JW55031 (tolC-mutant)), 64 µg/mL (≈ 148 µM); in series [3] it was greater than 64 µg/mL; in the series with Candida albicans it was 2 µg/mL (≈ 4.63 µM); with Candida albicans (C. albicans ATCC 10231), 4 µg/mL (≈ 9.27 µM). Further, the MIC turned out to be 1 µg/mL (≈ 2.32 µM) with Candida albicans (C. albicans SS5314 (wild-type)); 1 µg/mL (≈ 2.32 µM) in the series on Candida auris (C. auris 381); 2 µg/mL (≈ 4.63 µM) against Candida auris (C. auris 382); 1 µg/mL (≈ 2.32 µM) with Candida auris (C. auris 383); 1 µg/mL (≈ 2.32 µM) in the series with Candida auris (C. auris 384); 2 µg/mL (≈ 4.63 µM) in the series on Candida auris (C. auris 385). In addition, the MIC in the series on Candida auris (C. auris 386) is 1 µg/mL (≈ 2.32 µM); in the series on Candida auris (C. auris 387), 2 µg/mL (≈ 4.63 µM); against Candida auris (C. auris 388), 1 µg/mL (≈ 2.32 µM); in the series on Candida auris (C. auris 389), 2 µg/mL (≈ 4.63 µM); against Candida auris (C. auris 390) it was 1 µg/mL (≈ 2.32 µM); in the series with Candida glabrata (C. glabrata ATCC 66032), 1 µg/mL (≈ 2.32 µM). The MIC with Candida glabrata (C. glabrata ATCC MYA-2950) was 1 µg/mL (≈ 2.32 µM); against Candida krusei (C. krusei ATCC 34135) it was 1 µg/mL (≈ 2.32 µM); with Candida krusei (C. krusei CAB 396420), 1 µg/mL (≈ 2.32 µM); with Candida tropicalis, 4 µg/mL (≈ 9.27 µM); in series [4], greater than 128 µg/mL; in series [5] it was greater than 128 µg/mL. Also, the MIC was greater than 128 µg/mL in series [6]; 1 µg/mL (≈ 2.32 µM) in the series on Cryptococcus gattii (C. gattii NR 43209); 1 µg/mL (≈ 2.32 µM) in the series with Cryptococcus gattii (C. gattii NR 43210); 1 µg/mL (≈ 2.32 µM) against Cryptococcus neoformans (C. neoformans NR 41298); 1 µg/mL (≈ 2.32 µM) with Cryptococcus neoformans (C. neoformans NR 41300); 1 µg/mL (≈ 2.32 µM) against Cryptococcus neoformans (C. neoformans NR 48770). The MIC with Aspergillus fumigatus (A. fumigatus NR 35303) came out at 4 µg/mL (≈ 9.27 µM); in the series with Aspergillus fumigatus (A. fumigatus NR 35304), 4 µg/mL (≈ 9.27 µM); against Candida parapsilosis (C. parapsilosis ATCC 22019), 1 µg/mL (≈ 2.32 µM); in the series with Candida parapsilosis (C. parapsilosis CAB 502638) it was 1 µg/mL (≈ 2.32 µM). For the same compound, the “MIC against Aspergillus fumigatus” value in the series on Aspergillus fumigatus (tested A. fumigatus isolates (Table 5)) was 4 µg/mL (≈ 9.27 µM). The same compound registered a 50% cytotoxic concentration (CC50) in [7] greater than 128 µg/mL. The “concentration up to which non-toxic” value in series [7] is no more than 64 µg/mL; in series [8] (Vero, 24 h exposure, MTS), no more than 64 µg/mL. In series [8] (relative to amphotericin B), the “times more tolerable than amphotericin B” value amounted to 16 times.
For `Cc1nc(-c2ccc(-c3ccccc3)cc2)sc1-c1nnc(N2CC[C@H](N(C)C)C2)o1` [Compound 12, (S)-1-{5-[2-((1,1’-biphenyl)-4-yl)-4-methylthiazol-5-yl]-1,3,4-oxadiazol-2-yl}-N,N-dimethylpyrrolidin-3-amine], the melting point lay within 185 to 187 °C. The MIC in the series on MRSA USA300 (setting [9]) was determined as 16 µg/mL (≈ 37.1 µM). Moreover, the MIC in series [1] (setting [10]) came to 32 µg/mL (≈ 74.1 µM). The MIC in [2] (Escherichia coli) is greater than 64 µg/mL. The MIC in [3] (setting [11]) was greater than 64 µg/mL. Besides, the MIC in the series on Candida albicans (setting [12]) turned out to be 16 µg/mL (≈ 37.1 µM).
`Cc1nc(-c2ccc(-c3ccccc3)cc2)sc1-c1nnc(N2CCCCC2CN)o1` (stereo not drawn) [Compound 15, {1-[5-(2-((1,1’-Biphenyl)-4-yl)-4-methylthiazol-5-yl)-1,3,4-oxadiazol-2-yl]piperidin-2-yl}methanamine] displayed a melting point of 225 to 227 °C. Also, the MIC with MRSA USA300 (setting [9]) is 16 µg/mL (≈ 37.1 µM). Further, the MIC in [1] (setting [10]) amounted to 16 µg/mL (≈ 37.1 µM). The same compound came in with an MIC in series [2] (Escherichia coli) of 16 µg/mL (≈ 37.1 µM). Also, in series [3] (setting [11]), the MIC is greater than 64 µg/mL. In the series on Candida albicans (setting [12]), the MIC is 16 µg/mL (≈ 37.1 µM).
In turn, `Cc1nc(-c2ccc(-c3ccccc3)cc2)sc1-c1nnc(N[C@H]2CC[C@H](N)CC2)o1` [Compound 18, trans-N-{5-[2-((1,1’-Biphenyl)-4-yl)-4-methylthiazol-5-yl]-1,3,4-oxadiazol-2-yl}cyclo-hexane-1,4-diamine] gave a melting point of 260 to 263 °C. Moreover, in the series on MRSA USA300 (setting [9]), the MIC came out at 32 µg/mL (≈ 74.1 µM). Further, the MIC in [1] (setting [10]) stood at 8 µg/mL (≈ 18.5 µM). The compound further displayed an MIC in series [2] (Escherichia coli) of 32 µg/mL (≈ 74.1 µM). Moreover, the MIC in series [3] (setting [11]) was greater than 64 µg/mL. For the same compound, the MIC with Candida albicans (setting [12]) was 16 µg/mL (≈ 37.1 µM).
As to `Cc1nc(-c2ccc(-c3ccccc3)cc2)sc1-c1nnc(NCCO)o1` [Compound 19, 2-{[5-(2-((1,1’-Biphenyl)-4-yl)-4-methylthiazol-5-yl)-1,3,4-oxadiazol-2-yl]amino} ethan-1-ol], the melting point lay within 210 to 213 °C. In the series with MRSA USA300 (setting [9]), the MIC is greater than 64 µg/mL. In addition, the MIC in [1] (setting [10]) was determined as 64 µg/mL (≈ 169 µM). This compound also yielded an MIC in series [2] (Escherichia coli) greater than 64 µg/mL. Besides, the MIC in series [3] (setting [11]) was greater than 64 µg/mL. In the series with Candida albicans (setting [12]), the MIC is greater than 64 µg/mL.

Source of the values: publication PMC8568133, “Evaluation of bisphenylthiazoles as a promising class for combating multidrug-resistant fungal infections” (PLoS ONE, 2021).
